Data from patent publication US5834461A, “Tricyclic benzazepine vasopressin antagonists” (American Cyanamid Company, priority 1997, dated 1998).

Legend:
[1] = molecular target: T1, vasopressin V1 receptor subtype in human platelet membranes (Homo sapiens, UniProt P37288); test: Binding to Vasopressin V1 Receptor Subtype in Human Platelet Membranes; details: for IC50: human platelet V1 (*)
T1 construct: tissue Hudson Valley Blood Services; host or cells: human blood platelets (frozen platelet rich plasma)
T1 sequence (P37288 whole entry): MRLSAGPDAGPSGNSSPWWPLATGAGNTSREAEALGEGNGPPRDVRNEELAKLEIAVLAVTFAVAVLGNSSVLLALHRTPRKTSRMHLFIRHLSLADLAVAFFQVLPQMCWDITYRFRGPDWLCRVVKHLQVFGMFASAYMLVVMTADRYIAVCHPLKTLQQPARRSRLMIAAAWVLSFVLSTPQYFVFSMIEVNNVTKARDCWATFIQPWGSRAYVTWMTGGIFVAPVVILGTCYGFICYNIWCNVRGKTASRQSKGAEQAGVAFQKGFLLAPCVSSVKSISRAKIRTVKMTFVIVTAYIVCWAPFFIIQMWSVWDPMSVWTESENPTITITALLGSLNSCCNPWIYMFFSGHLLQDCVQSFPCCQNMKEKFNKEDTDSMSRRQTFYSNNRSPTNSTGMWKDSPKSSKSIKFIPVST
Method: (a) Platelet Membrane Preparation:
Frozen platelet rich plasma (PRP), received from the Hudson Valley Blood Services, are thawed to room temperature. (Platelet Source: Hudson Valley Blood Services, Westchester Medical Center, Valhalla, N.Y.). The tubes containing the PRP are centrifuged at 16,000×g for 10 min. at 4° C. and the supernatant fluid discarded. The platelets resuspended in an equal volume of 50.0 mM Tris.HCl, pH 7.5 containing 120 mM NaCl and 20.0 mM EDTA. The suspension is recentrifuged at 16,000×g for 10 min. This washing step is repeated one more time. The wash discarded and the lysed pellets homogenized in low ionic strength buffer of Tris.HCl, 5.0 mM, pH 7.5 containing 5.0 mM EDTA. The homogenate is centrifuged at 39,000×g for 10 min. The resulting pellet is resuspended in Tris.HCl buffer, 70.0 mM, pH 7.5 and recentrifuged at 39,000×g for 10 min. The final pellet is resuspended in 50.0 mM Tris.HCl buffer pH 7.4 containing 120 mM NaCl and 5.0 mM KCl to give 1.0-2.0 mg protein per ml of suspension.
(b) Binding to Vasopressin V1 Receptor Subtype in Human Platelet Membranes:
In wells of a 96 well format microtiter plate, add 100 μl of 50.0 mM Tris.HCl buffer containing 0.2% BSA and a mixture of protease inhibitors (aprotinin, leupeptin etc.). Then add 20 μl of [^3 H]Ligand (Manning or Arg^8 Vasopressin), to give final concentrations ranging from 0.01 to 10.0 nM. Initiate the binding by adding 80.0 μl of platelet suspension (approx. 100 μg protein). Mix all reagents by pipetting the mixture up and down a few times. Non specific binding is measured in the presence of 1.0 μM of unlabeled ligand (Manning or Arg^8 Vasopressin). Let the mixture stand undisturbed at room temperature for ninety (90) min. Upon this time, rapidly filter off the incubate under vacuum suction over GF/B filters, using a Brandel Harvester. The radioactivity caught on the filter disks is determined by the addition of liquid scintillant and counting in a liquid scintillator.

[2] = molecular target: T2, human V2 vasopressin receptor (Homo sapiens, UniProt P30518); test: Binding to Membranes of Mouse Fibroblast Cell Line (LV-2) Transfected with the cDNA Expressing the Human V2 Vasopressin Receptor; details: V2 column, printed with one *, read-out: V2, % at concentration in brackets
T2 construct: expressed in transfected cells; host or cells: mouse fibroblast cell line LV-2
T2 sequence (P30518 whole entry): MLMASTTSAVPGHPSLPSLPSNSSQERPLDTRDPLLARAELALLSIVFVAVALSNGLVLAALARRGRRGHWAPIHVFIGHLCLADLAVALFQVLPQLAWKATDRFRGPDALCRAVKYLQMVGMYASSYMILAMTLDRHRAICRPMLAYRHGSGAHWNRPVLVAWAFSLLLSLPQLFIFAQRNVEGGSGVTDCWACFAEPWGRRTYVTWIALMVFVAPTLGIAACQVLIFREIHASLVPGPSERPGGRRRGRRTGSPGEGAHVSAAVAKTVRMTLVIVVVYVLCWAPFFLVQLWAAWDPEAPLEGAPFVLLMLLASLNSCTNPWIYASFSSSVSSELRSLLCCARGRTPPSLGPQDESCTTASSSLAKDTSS

vasopressin V2 = test: Vasopressin V2 Antagonist Activity in Conscious Hydrated Rats (diuretic effect); format: in vivo, normal Sprague-Dawley rats; details: 10 mg/kg orally, AVP 0.4 μg/kg i.p.
Procedure, shortened: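 Conscious rats were dosed orally at 0.1–100 mg/kg, and AVP 0.4 μg/kg i.p. in peanut oil followed 1 h later. Urine volume, osmolality and Na/K/Cl were compared against AVP-treated controls, with non-AVP rats as water-loading controls.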

[3] = molecular target: T2, human V2 vasopressin receptor; test: Binding to Membranes of Mouse Fibroblast Cell Line (LV-2) Transfected with the cDNA Expressing the Human V2 Vasopressin Receptor; details: for IC50: LV-2 cells
Method: Flasks of 175 ml capacity, containing attached cells grown to confluence, are cleared of culture medium by aspiration. The flasks containing the attached cells are rinsed with 2×5 ml of phosphate buffered saline (PBS) and the liquid aspirated off each time. Finally, 5 ml of an enzyme free dissociation Hank's based solution (Specialty Media, Inc., Lafayette, N.J.) is added and the flasks are left undisturbed for 2 min. The content of all flasks is poured into a centrifuge tube and the cells pelleted at 300×g for 15 min. The Hank's based solution is aspirated off and the cells homogenized with a polytron at setting #6 for 10 sec in 10.0 mM Tris.HCl buffer, pH 7.4 containing 0.25M sucrose and 1.0 mM EDTA. The homogenate is centrifuged at 1500×g for 10 min to remove ghost membranes. The supernatant fluid is centrifuged at 100,000×g for 60 min to pellet the receptor protein. Upon completion, the pellet is resuspended in a small volume of 50.0 mM Tris.HCl buffer, pH 7.4. The protein content is determined by the Lowry method and the receptor membranes are suspended in 50.0 mM Tris.HCl buffer containing 0.1 mM phenylmethylsulfonylfluoride (PMSF) and 0.2% bovine serum albumin (BSA) to give 2.5 mg receptor protein per ml of suspension.
For binding experiments, the following is added in μl volume to wells of a 96 well format of a microtiter plate: 100.0 μl of 100.0 mM Tris.HCl buffer containing 0.2% heat inactivated BSA, 10.0 mM MgCl2 and a mixture of protease inhibitors: leupeptin, 1.0 mg %; aprotinin, 1.0 mg %; 1,10-phenanthroline, 2.0 mg %; trypsin inhibitor, 10.0 mg % and 0.1 mM PMSF., 20.0 μl of [^3 H] Arginine^8, vasopressin (S.A. 75.0 Ci/mmole) at 0.8 nM and the reaction initiated by the addition of 80.0 μl of tissue membranes ([…]).
The plates are left undisturbed on the bench top for 120 min to reach equilibrium. Non specific binding is assessed in the presence of 1.0 μM of unlabeled ligand, added in 20 μl volume. For test compounds, these are solubilized in 50% dimethylsulfoxide (DMSO) and added in 20.0 μl volume to a final incubation volume of 200 μl. Upon completion of binding, the content of each well is filtered off, using a Brandel® cell Harvester (Gaithersburg, Md.). The radioactivity trapped on the filter disk by the ligand-receptor complex is assessed by liquid scintillation counting in a Packard LS Counter, with an efficiency of 65% for tritium.

[4] = molecular target: T3, oxytocin receptors (rat uterus membranes) (Rattus norvegicus, UniProt P70536); test: Oxytocin Receptor Binding; parameters: species or system female Sprague-Dawley rats
T3 construct: The resulting pellet containing the oxytocin receptors is resuspended; from tissue; host or cells: uterus membranes of DES-treated female Sprague-Dawley rats
T3 sequence (P70536 1-388): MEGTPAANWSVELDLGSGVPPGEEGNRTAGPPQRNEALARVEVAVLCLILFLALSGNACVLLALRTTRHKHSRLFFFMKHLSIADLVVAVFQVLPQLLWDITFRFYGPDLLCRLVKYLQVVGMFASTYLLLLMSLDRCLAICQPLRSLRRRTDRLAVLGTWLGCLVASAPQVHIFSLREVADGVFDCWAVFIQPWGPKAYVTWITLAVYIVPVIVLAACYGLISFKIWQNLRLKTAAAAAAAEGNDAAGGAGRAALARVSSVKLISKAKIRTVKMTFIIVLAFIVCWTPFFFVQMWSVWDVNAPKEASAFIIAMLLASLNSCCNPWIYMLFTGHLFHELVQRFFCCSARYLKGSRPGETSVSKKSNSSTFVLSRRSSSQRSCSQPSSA
Method: Female Sprague-Dawley rats weighing approximately 200-250 g are injected intramuscularly (i.m.) with 0.3 mg/kg of body weight of diethylstilbestrol (DES). The rats are sacrificed 18 hours later under pentobarbital anesthesia. The uteri are dissected out, cleaned of fat and connective tissues and rinsed in 50 ml of normal saline. The tissue pooled from six rats is homogenized in 50 ml of […] Tris.HCl, containing 0.5 mM dithiothreitol and 1.0 mM EDTA, adjusted to pH 7.4, using a polytron at setting 6 with three passes of 10 sec each. The homogenate is passed through two (2) layers of cheesecloth and the filtrate centrifuged at 1000×g for 10 min. The clear supernatant is removed and recentrifuged at 165,000×g for 30 min. The resulting pellet containing the oxytocin receptors is resuspended in 50.0 mM Tris.HCl containing 5.0 mM MgCl2 at pH 7.4, to give a protein concentration of 2.5 mg/ml of tissue suspension. This preparation is used in subsequent binding assays with [^3 H]Oxytocin.
Binding of 3,5-[^3 H]Oxytocin ([^3 H]OT) to its receptors is done in microtiter plates using [^3 H]OT, at various concentrations, in an assay buffer of 50.0 mM Tris.HCl, pH 7.4 and containing 5.0 mM MgCl2, and a mixture of protease inhibitors: BSA, 0.1 mg; aprotinin, 1.0 mg; 1,10-phenanthroline, 2.0 mg; […], 10.0 mg; and PMSF, 0.3 mg per 100 ml of buffer solution. Non-specific binding is determined in the presence of 1.0 uM unlabeled OT. The binding reaction is terminated after 60 min., at 22° C., by rapid filtration through glass fiber filters using a Brandel® cell harvester (Biomedical Research and Development Laboratories, Inc., Gaithersburg, Md.). Competition experiments are conducted at equilibrium using 1.0 nM [^3 H]OT and varying the concentration of the displacing agents. The concentrations of agent displacing 50% of [^3 H]OT at its sites (IC50) are calculated by a computer assisted LUNDON-2 program (LUNDON SOFTWARE INC., Ohio, USA).

[5] = molecular target: T4, rat kidney medullary V2 receptors (Rattus norvegicus, UniProt Q00788); test: Binding Assay to Rat Kidney Medullary V2 Receptors; details: rat kidney medullary V2
T4 construct: Medullary tissues from rat kidneys are dissected out; from tissue; host or cells: rat kidney medulla membranes
T4 sequence (Q00788 whole entry): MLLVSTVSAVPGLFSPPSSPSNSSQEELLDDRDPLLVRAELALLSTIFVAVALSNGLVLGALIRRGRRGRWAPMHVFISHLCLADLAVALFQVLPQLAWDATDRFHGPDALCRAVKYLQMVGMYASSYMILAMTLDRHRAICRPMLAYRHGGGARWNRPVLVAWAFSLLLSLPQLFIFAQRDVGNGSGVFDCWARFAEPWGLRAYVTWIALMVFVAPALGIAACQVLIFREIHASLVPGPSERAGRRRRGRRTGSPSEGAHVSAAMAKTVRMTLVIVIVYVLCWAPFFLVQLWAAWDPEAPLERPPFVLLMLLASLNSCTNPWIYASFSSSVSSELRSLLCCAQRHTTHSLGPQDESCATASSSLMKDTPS
Procedure, shortened: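 Competition binding: [3H]AVP at 0.8 nM, test compounds from 50% DMSO, and membranes from rat kidney medulla, left 120 min on the bench. Filtration then liquid scintillation counting measured bound ligand; 1.0 μM unlabeled ligand set non-specific binding.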

vasopressin V1 = test: Vasopressin V1 Antagonist Activity in Conscious Rats (vasopressin vasopressor response); format: in vivo, rat (spontaneously hypertensive rats); details: 10 mg/kg i.v.
Procedure, shortened: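 Conscious rats had the ventral caudal tail artery cannulated into the lower abdominal aorta under local procaine anesthesia, plus a caudal vein cannula for intravenous dosing. Pulsatile blood pressure was recorded via a Statham P23Db transducer. Vasopressor responses to vasopressin injections were measured before and after compound dosing, with percent antagonism calculated relative to the pre-drug response taken as 100%.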

Row | SMILES | IC50 [1] | IC50 [3] | Osmolality (vasopressin V2) | Urine Volume (vasopressin V2) | also measured
1 | Cc1ccccc1NC(=O)Nc1ccc(C(=O)N2Cc3ccccc3Cc3ccccc32)cc1 [Example 122, 6,11-Dihydro-5-[4-[[[(2-methylphenyl)amino]carbonyl]-amino]benzoyl]-5H-dibenz[b,e]azepine] | – | – | – | – | inhibition at 10 µM ([1]; 1.5 h, 10 μM, human platelet (*), read-out: *V1, % at concentration in brackets): 95%; inhibition at 10 µM [2]: 92%
2 | Cc1ccccc1C(=O)Nc1ccc(C(=O)N2Cc3ccsc3Cc3ccccc32)cc1 [Example 456, N-[4-[(4,10-Dihydro-5H-thieno[3,2-c][1]benzazepin-5-yl)carbonyl]phenyl]-2-methylbenzamide] | 36 nM | 9 nM | 1209 mOsm/kg | 4.8 ml/4 hrs. | –
3 | CCOC(=O)Cn1cc2c(n1)-c1ccccc1N(C(=O)c1ccc(NC(=O)c3ccc(Cl)cc3Cl)cc1)CC2 [Example 452, Ethyl 6-[4-[(2,4-dichlorobenzoyl)amino]benzoyl]-5,6-dihydropyrazolo[4,3-d][1]benzazepine-2(4H)-acetate] | 470 nM | 10 nM | 584 mOsm/kg | 7.8 ml/4 hrs. | –
4 | Cc1c(F)cccc1C(=O)Nc1ccc(C(=O)N2Cc3ccccc3Cc3ccccc32)c(Cl)c1 [Example 264, N-[4-[(6,11-Dihydro-5H-dibenz[b,e]azepin-5-yl)-carbonyl]-3-chlorophenyl]-2-methyl-3-fluorobenzamide] | 980 nM | 28 nM | 682 mOsm/kg | 12 ml/4 hrs. | –
5 | O=C(O)Cn1cc2c(n1)-c1ccccc1N(C(=O)c1ccc(NC(=O)c3ccc(Cl)cc3Cl)cc1)CC2 [Example 451, 6-[4-[(2,4-Dichlorobenzoyl)amino]benzoyl]-5,6-dihydropyrazolo[4,3-d][1]benzazepine-2(4H)-acetic acid] | – | – | 989 mOsm/kg | 5.3 ml/4 hrs. | inhibition at 1 µM ([1]; 1.5 h, 1 μM, human platelet (*), read-out: *V1, % at concentration in brackets): 35%; inhibition at 1 µM ([3]; 1 μM, read-out: **V2, % at concentration in brackets): 69%

Now from value to compound, other results behind:

Row | IC50 [1] | IC50 [3] | SMILES | Osmolality (vasopressin V2) | Urine Volume (vasopressin V2) | also measured
6 | 12 nM | – | Cc1ccccc1C(=O)Nc1ccc(C(=O)N2CCc3c[nH]nc3-c3ccccc32)cc1 [Example 585, N-[4-[(4.5-Dihydropyrazolo[4.3-d][1]benzaze-in-6(2H)-yl)carbonyl]phenyl]-2-methylbenzamide] | – | – | inhibition at 10 µM ([4]; dose 10 μM): 99%; IC50 ([4]; second part of Table V): 250 nM; IC50 [5]: 32 nM
7 | 1.8 nM | 0.71 nM | Cc1ccccc1C(=O)Nc1ccc(C(=O)N2Cc3sccc3Cc3ccccc32)cc1 [Example 458] | 537 mOsm/kg | 13.5 ml/4 hrs. | MAX % Inhibition (vasopressin V1): 77%; Time of max % inhibition (vasopressin V1): 180 min
